Measurements: patent US6335019B1, “Methods for treating sensitivity to protein allergen using peptides which include a T cell epitope recognized by a T cell receptor specific for the protein allergen” (Immulogic Pharmaceutical Corp., priority 1989, dated 2002)

B1: Amb a IA(t): truncated recombinant Amb a IA, amino acid 70-398, E. coli expressed, used as crude bacterial lysate (protein)
chain: DCAQGFGKGTVGGKDGDIYTVTSELDDDVANPKEGTLRFGAAQNRPLWIIFERDMVIRLDKEMVVNSDKTIDGRGAKVEIINAGFTLNGVKNVIIHNINMHDVKVNPGGLIKSNDGPAAPRAGSDGDAISISGSSQIWIDHCSLSKSVDGLVDAKLGTTRLTVSNSLFTQHQFVLLFGAGDENIEDRGMLATVAFNTFTDNVDQRMPRCRHGFFQVVNNNYDKWGSYAIGGSASPTILSQGNRFCAPDERSKKNVLGRHGEAAAESMKWNWRTNKDVLENGAIFVASGVDPVLTPEQSAGMIPAEPGESALSLTSSAGVLSCQPGAPC

What was measured:
[1] = tested on: ragweed pollen-specific T cells of ragweed allergic patients; assay: Secondary and tertiary T cell proliferation assays of a panel of ragweed allergic patients with synthetic peptides; type: cell-based, human; settings: for Stimulation of ragweed allergic patient T cells by synthetic peptide (in words): in vitro proliferation assays; for NUMBER POSITIVE (patients with T cell response to peptide) / POSITIVE % (patients whose T cells are stimulated by peptide): positive = T cell proliferative response greater than 2-fold above culture medium control
Procedure: (§1) Peripheral blood mononuclear cells (PBMC) were purified from 60 ml of heparinized blood from ragweed-allergic patients. PBMC were subsequently treated as described below, although in individual cases, the length of time of cultivation with IL-2 and IL-4 and the specific ragweed proteins and peptides used for stimulation varied. As an example, ten ml of patient 222 PBMC at 10^6/ml were cultured at 37° C. for 7 days in the presence of 20 micrograms aqueous ragweed pollen extract/ml RPMI-1640 supplemented with 5% pooled human AB serum. Viable cells were purified by Ficoll-Hypaque centrifugation and cultured for three weeks at 5 units recombinant human IL-2/ml and 5 units recombinant human IL-4/ml. The resting T cells were then restimulated (secondary) with 20 micrograms aqueous ragweed pollen extract/ml at a density of 2×10^5 cells/ml in the presence of X-irradiated (3500 RADS) autologous PBMC (5×10^5/ml) for three days, purified by Ficoll-Hypaque centrifugation and grown in 5 units IL-2/ml and 5 units IL-4/ml for two weeks. For assay, 2×10^4 resting secondary T cells were restimulated (tertiary) in the presence of 5×10^4 X-irradiated (3500 RADS) autologous PBMC or 2×10^4 autologous Epstein-Barr virus-transformed B cells (20,000 RADS) with various concentrations of allergen or their fragments in a volume of 200 microliters in 96-well round bottom assay plates for 3 days. Each well then received 1 microCurie tritiated (methyl) thymidine for 16 hours. The counts incorporated were collected onto glass fiber filters and processed for liquid scintillation counting. […] Antigens used: IPC aqueous pollen extract (pollen), Hollister-Stier ragweed skin test extract (RWST), ALK cat epithelium skin test extract (CST), affinity 4B5/B7 antibody purified (dialyzed) Amb a I (B7), and chromatographically purified Amb a I and (Amb a I). Medium only control is shown as a line with no symbol. Alternatively, PBMC were sometimes carried only into a secondary assay (as outlined above for a tertiary assay) with 20 micrograms aqueous pollen extract 7 days, followed by culture in 5 units IL-2/ml and 5 units IL-4/ml for 2-3 weeks. […] Secondary and tertiary assays of a panel of ragweed allergic patients were performed using synthetic peptides derived from the sequences of various ragweed pollen proteins. […] Another four peptides (RAE15.6, RAE3.D, RAE28.1, RAE26.15) which are also derived from the sequence of the same three cDNA's could stimulate 35 to 58% of the patients' T cells. One peptide (RAE4) which is derived from the cDNA of IPC Clone 5 could also stimulate 25% of the patients' T cells. […] By this method it is possible to identify novel therapeutic and diagnostics entities for use in the treatment and the diagnosis of ragweed allergy.

[2] = tested on: human IgE (ragweed allergic patient sera); assay: SDS-PAGE Western blot (and ELISA) of ragweed allergic patient IgE binding to pollen, affinity purified and recombinant Amb a I / Amb a II; set-up: key to IgE binding, summarized Western blot data: −: no signal over background; +−: barely discernable over background; +: clearly positive; ++: strongly positive; +++: highly positive
Procedure: As represented in FIG. 1A, a selected monoclonal antibody (designated 4B5/B7) which recognizes an Amb a I preparation unsubjected to denaturing conditions was used to affinity purify from pollen extract a single protein, which is referred to as affinity purified Amb a I. This was carried out, using known techniques, by producing the desired monoclonal antibody, isolating it in large quantities from ascites and immobilizing it on Sepharose (Pharmacia). Aqueous pollen extract was passed over the monoclonal antibody-containing column and a protein species was eluted.
Furthermore, full-length and truncated cDNAs encoding several members of the Amb a I multigene family, as well as Amb a II, were cloned in-frame into the expression vector pTrc99 (Amann et al. Gene, 69:301-315, (1988)) and transformed into the JM109 host. Expression of recombinant Amb a I and Amb a II protein was induced by 1 mM isopropyl-β-D-thiogalactopyranoside, cells were harvested, lysozyme treated, sonicated and insoluble inclusion bodies recovered by a low speed centrifugation. Recombinant Amb a I and Amb a II protein present in the recovered pellet was solubilized in buffer containing 8M urea, 50 mM Tris HC1 pH8.0, 50 mM NaCl, 1 mM EDTA, 1 mM dithiothreitol, 1 mM phenylmethylsulfonyl fluoride. After solubilization, the crude urea lysate was dialyzed at 4° C. against PBS. […] This antigenic cross-reactivity is consistent with the observed sequence homology of the cDNAs (see FIG. 16).
Comparison of human IgE binding to recombinant Amb a I and Amb a II proteins with anti-peptide and monoclonal anti-Amb a I antibodies have provided data consistent with the conclusion that the N-terminal portion (historically referred to as the β-region) of Amb a IA includes the major IgE eptiope(s).
Affinity purified Amb a I was electrophoresed, Western transferred (Towbin et al., Proc. Natl. Acad. Sci. USA, 76:4350 (1979)) and probed with a variety of antibodies, including IgE from an allergic patient (FIG. 17). In pollen extract Amb a I is not only present as an intact 38-KD species, but also characterized by its component 26KD alpha chains and 12-KD beta chains which are formed by enzymatic cleavage. The intact 38-KD species and the alpha chain are clearly detected using rabbit anti-Amb a I, polyclonal affinity purified anti-RAE 16 and monoclonal anti-Amb a I JBIE3-4 (FIG. 17); RAE 16 peptide has the sequence RTDKDLLENGAIC derived from amino-acids […] of Amb a IB, FIG. 16). Affinity purified Amb a I (partial sequence presented in Table 1) as well as chromatographically purified Amb a II (partial sequence presented in Table 2) are bound on Western blots by these antibodies as well as by patient IgE (FIG. 17). The goat anti-Amb a I polyclonal antibody also binds multiple Amb a I and Amb a II species on a two dimensional Western blot of pollen extract (FIG. 18). The Western blot was performed as outlined below. […]

[3] = tested on: T cells from patients allergic to ragweed; assay: T cell proliferation of ragweed allergic patient T cells to ragweed proteins and recombinant lysates (tritiated thymidine); type: cell-based, human
Source text: T cells from patients allergic to ragweed, previously stimulated with a mixed ragweed pollen extract, can recognize and proliferate in response to pollen extract, ragweed skin test reagent (RWST), affinity purified Amb a I protein and crude bacterial lysates containing recombinant Amb a I gene products IA, IB and IC (Table 4). […] The use of crude bacterial lysates as antigens precludes a firm conclusion form the negative responses, since the relative levels of recombinant proteins in lysate have not been determined.
as §1

Row | Molecule | Stimulation of ragweed allergic patient T cells by synthetic peptide (in words) [1] | NUMBER POSITIVE (patients with T cell response to peptide) [1] | POSITIVE % (patients whose T cells are stimulated by peptide) [1] [%] | further results
1 | ETRRSLKTSGAYNIIDGCWRGKAD [RAE 24.E] | could not stimulate any | 0 | 0 | 
2 | FFPILGGITEVKDNDNSVDFC [RAE 4, synthetic peptide deduced from IPC Clone 5] | stimulates | 7 | 25 | Stimulation of ragweed allergic patient T cells by synthetic peptide (in words) ([1]; listed as RAE4): could be stimulated
3 | GFFQVVNNNYDRWGTYA [RAE 26.15] |  | 14 | 58 | 
4 | GKADWAENRC [RAE 3.D] |  | 13 | 37 | 
5 | LENGAIFVASGVDPVLTPEQ [RAE 28.1] |  | 17 | 52 | 
6 | LNQELVVNSDKTIDGRGVK [RAE 45.15] | could not stimulate any | 0 | 0 | 
7 | RTDKDLLENGAIC [RAE 16.6] | could not stimulate any | 0 | 0 | 
8 | YTVTSDKDDDVANC [RAE 15.6] |  | 7 | 35 | 
9 | B1 |  |  |  | Human IgE binding (in words) ([2]; Western blot (FIG. 17) and/or ELISA, ragweed allergic patient IgE): less well than the full-length Amb a IA; IgE binding, summarized Western blot data ([2]; patient 151): −; IgE binding, summarized Western blot data ([2]; patient 222): +−; IgE binding, summarized Western blot data ([2]; patient 291): +; IgE binding, summarized Western blot data ([2]; patient 295): +; Stimulatory response of human T cells (proliferation compared to medium control) ([3]; patient 151 2° (secondary assay)): + (2-4 fold); Stimulatory response of human T cells (proliferation compared to medium control) ([3]; patient 222 2° (secondary assay)): ++ (4-10 fold); Stimulatory response of human T cells (proliferation compared to medium control) ([3]; patient 295 2° (secondary assay)): + (2-4 fold); Stimulatory response of human T cells (proliferation compared to medium control) ([3]; patient 296 2° (secondary assay)): +++ (>10 fold); Stimulatory response of human T cells (proliferation compared to medium control) ([3]; patient 314 2° (secondary assay)): +++ (>10 fold); Stimulatory response of human T cells (proliferation compared to medium control) ([3]; patient 316 2° (secondary assay)): +++ (>10 fold); Stimulatory response of human T cells (proliferation compared to medium control) ([3]; patient 320 2° (secondary assay)): ++ (4-10 fold); Stimulatory response of human T cells (proliferation compared to medium control) ([3]; patient 321 2° (secondary assay)): ++ (4-10 fold)
